Where two headings read alike, the source gives them in different places.
Key:
BT549 cells = experiment: MTT cell viability assay, BT549; type: cell-based; conditions: Homo sapiens
Protocol: An MTT (3-(4,5-dimethylthiazol-2-yl)-2,5-diphenyltetrazolium bromide)-based colorimetric assay was performed to measure the cell viability. On a 96-well plate, cells were seeded at a density of 3000–5000 cells/well. The cell number for the assay was decided based on the exponential growth of untreated cells. The cells were treated with compounds for 72 h followed by incubation with MTT for 4 h at 37 °C. The formazan crystals were dissolved in DMSO and absorbance was measured at 540 nm. The percentage viability was calculated as % cell viability = (OD treated cells/OD control cells) × 100, and the IC50 was estimated by curve-fitting using the non-linear regression of a dose–response curve. The experiments were repeated at least two to three times.
The top 29 lead molecules, guided by the in silico results, were subjected to further in vitro validation by assessing the cellular cytotoxicity in both cancer (Figure 3a) and normal cell lines (Supplementary Figure S2a) using the MTT assay. Moreover, we performed MTT (Supplementary Figure S3c) and Annexin V assays on an additional cell line, BT549, a triple-negative breast cancer model, to validate the activity of the compounds (Supplementary Figure S4). […] We also provided the AUC plots for the top three compounds for a better understanding of the activity (Supplementary Figure S5). […]

MDA-MB-231 xenografts = experiment: MDA-MB-231 xenograft in athymic mice; type: in vivo
Protocol: Mice were sheltered in the animal facility of Sri Ramachandra Medical College and Research Institute (Chennai, India), which has been certified as a pathogen-free animal house for performing mice experiments. All the methods were carried out according to the IAEC guidelines and regulations. Experimental procedures were framed and approved by the Institutional Animal Ethical Committee (IAEC) (IAEC approval number: IAEC/57/SRIHER/639/2019). The entire study was in accordance with the ARRIVE guidelines to ensure the safety of the animals. The sizes of the mice groups were chosen in accordance with statistical significance; the measurements and analysis were performed in an unbiased manner.
4–6 week-old female athymic mice were transplanted with MDA-MB-231 triple-negative breast tumor cells. The growth media with MDA-MB-231 cells and Matrigel (BD Biosciences) at a 1:1 ratio was mixed and injected into mice. The tumor lengths and widths were measured with an electronic caliper 2–3 times a week. The tumor volume was calculated using the formula: (length × width^2)/2. All of the mice were randomized after 10 days, as the tumor volume reached approximately 80–90 mm^3. A total of 25 mice were sorted into 5 treatment groups, followed by a compound treatment (SM216, SM396, SM949, and ABT199) or vehicle (n = 5 for each group). The drug compounds were formulated in PBS and administrated as i.p doses (100 mg/Kg w) for two schedules per week. Tumor growth inhibition (TGImax) was calculated using the following equation: (1) Tumor Growth Inhibition =1−mean of volume of treated at day x−mean of volume treated at day 0/mean of volume of control at day x−mean of volume of control at day 0×100
As the tumor size exceeded 600 mm^3, we euthanized the mice for ethical reasons. The euthanasia procedure used was carbon dioxide asphyxiation followed by cervical dislocation. The mean of the tumor volume ± SEM for different time points was represented until we sacrificed at least one mouse in a group.
To test the in vivo anti-cancer efficacy of the novel small molecules viz. SM216, SM396, and SM949, 4–6 weeks old female athymic mice were xenografted with MDA-MB-231 cells on the mammary fat pads and palpable tumors were induced. […] Tumor volumes were measured at regular intervals and the data were tabulated. […] The growth kinetics and maximal tumor growth inhibition (TGImax) are depicted as tumor volumes (five groups of mice treated with different drugs) in Figure 6e,f. The average tumor volume for all groups on day 0 of treatment was 92.77 mm^3. We observed that all three lead molecules inhibited tumor growth efficiently compared to the vehicle control. […] These compounds achieved regression of 60% after 20 days of treatment. […] Moreover, these compounds were well tolerated with no weight loss and hemolysis in all treatment groups. The survival was 100% for all treatment mice groups until the termination of the study. […] A decrease in the expression of PCNA was observed upon treatment with SM396 compared to the vehicle control.

CC1(C)CCC(CN2CCN(c3ccc(C(=O)NS(=O)(=O)c4ccc(NCC5CCOCC5)c([N+](=O)[O-])c4)c(Oc4cnc5[nH]ccc5c4)c3)CC2)=C(c2ccc(Cl)cc2)C1 [ABT-199, venetoclax]
IC50 (BT549 cells; BT-549, Supplementary Figure S3c legend, read-out: IC50 (dose-response curve fitting)): 7.19 µM
IC50 (BT549 cells; BT-549, read-out: IC50 (non-linear regression of dose-response curves)): 7.2 µM
Tumor Volume, Mean (MDA-MB-231 xenografts; Day 0, i.p. 100 mg/kg, two schedules per week): 95.35 mm^3
Tumor Volume, Mean (MDA-MB-231 xenografts; Day 6, i.p. 100 mg/kg): 162.15 mm^3
Tumor Volume, Mean (MDA-MB-231 xenografts; Day 9, i.p. 100 mg/kg (column head printed SEM)): 313.94 mm^3
Tumor Volume, Mean (MDA-MB-231 xenografts; Day 13, i.p. 100 mg/kg): 313.03 mm^3
Tumor Volume, Mean (MDA-MB-231 xenografts; Day 15, upon 4 doses, i.p. 100 mg/kg): 371.94 mm^3
Tumor Volume, Mean (MDA-MB-231 xenografts; Day 17, i.p. 100 mg/kg): 424.83 mm^3
Tumor Volume, Mean (MDA-MB-231 xenografts; Day 20, i.p. 100 mg/kg): 382.6 mm^3
